# Molecular target: T1, human recombinant IL-17A (Homo sapiens, UniProt Q16552)
# T1 construct: purchased R&D Systems 7955-IL/CF
# T1 sequence (Q16552 24-155): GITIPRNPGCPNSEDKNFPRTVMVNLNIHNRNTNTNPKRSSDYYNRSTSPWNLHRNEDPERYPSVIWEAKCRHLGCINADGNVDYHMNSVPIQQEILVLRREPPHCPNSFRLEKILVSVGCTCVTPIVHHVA
# Test: IL-17A AlphaLISA assay (block binding of IL-17A to its receptor IL-17RA)
# Details: compounds pre-incubated with the IL-17A for 30 min (indicated by * in Table A); read-out: AlphaLISA pIC50 (converted)
# Procedure, shortened: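 PBS with 0.05% Tween-20 and 0.1% BSA. IL-17A stock 7.5 nM, IL-17RA/Fc stock 5 nM; compound–cytokine pre-incubation 24 h at RT, or 30 min where marked, then 90 min with receptor. pIC50 from 4-parameter logistic AlphaLISA signal, normalised to DMSO and 6 μM reference inhibitor.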
row,Structure (SMILES),IC50
1,"CCc1nocc1C(=O)N[C@H](C(=O)Nc1ccc(-c2c(C)cnn2C)cn1)C1CCC(F)(F)CC1 [Example 144, (S)—N-(1-(4,4-difluorocyclohexyl)-2-((5-(1,4-dimethyl-1H-pyrazol-5-yl)pyridin-2-yl)amino)-2-oxoethyl)-3-ethylisoxazole-4-carboxamide]",794 nM
2,"Cc1cnn(C)c1-c1ccc(NC(=O)[C@@H](NC(=O)c2ccnn2C)[C@H]2CC[C@H](C)CC2)cn1 [Example 145, N—((S)-2-((6-(1,4-dimethyl-1H-pyrazol-5-yl)pyridin-3-yl)amino)-1-((1r,4S)-4-methylcyclohexyl)-2-oxoethyl)-1-methyl-1H-pyrazole-5-carboxamide]",398 nM
3,"Cc1cc(NC(=O)[C@@H](NC(=O)c2ccnn2C)[C@H]2CC[C@H](C)CC2)ncc1-c1ccnn1C [Example 146, 1-methyl-N—((S)-2-((4-methyl-5-(1-methyl-1H-pyrazol-5-yl)pyridin-2-yl)amino)-1-((1r,4S)-4-methylcyclohexyl)-2-oxoethyl)-1H-pyrazole-5-carboxamide]",501 nM
4,"CCn1nccc1C(=O)N[C@H](C(=O)Nc1cnc(-c2c(C)cnn2C)nc1)[C@H]1CC[C@H](C)CC1 [Example 147, N—((S)-2-((2-(1,4-dimethyl-1H-pyrazol-5-yl)pyrimidin-5-yl)amino)-1-((1r,4S)-4-methylcyclohexyl)-2-oxoethyl)-1-ethyl-1H-pyrazole-5-carboxamide]",398 nM
5,"Cc1nccc(-c2ccc(NC(=O)[C@@H](NC(=O)c3ccnn3C)[C@H]3CC[C@H](C)CC3)nc2)c1C [Example 152, N—((S)-2-((2′,3′-dimethyl-[3,4′-bipyridin]-6-yl)amino)-1-((1r,4S)-4-methylcyclohexyl)-2-oxoethyl)-1-methyl-1H-pyrazole-5-carboxamide]",794 nM
6,"Cc1cc(-c2ccc(NC(=O)[C@@H](NC(=O)c3ccnn3C)[C@H]3CC[C@H](C)CC3)nc2)c(C)cn1 [Example 153, N—((S)-2-((2′,5′-dimethyl-[3,4′-bipyridin]-6-yl)amino)-1-((1r,4S)-4-methylcyclohexyl)-2-oxoethyl)-1-methyl-1H-pyrazole-5-carboxamide]",398 nM
7,"CCc1nocc1C(=O)N[C@H](C(=O)Nc1ccc(-c2c(C)cnn2C)nc1)[C@H]1CC[C@H](C)CC1 [Example 155, N—((S)-2-((6-(1,4-dimethyl-1H-pyrazol-5-yl)pyridin-3-yl)amino)-1-((1r,4S)-4-methylcyclohexyl)-2-oxoethyl)-3-ethylisoxazole-4-carboxamide]",100 nM
8,"Cc1cnn(C)c1-c1ncc(NC(=O)[C@@H](NC(=O)c2ccnn2C)[C@H]2CC[C@H](C)CC2)cn1 [Example 156, N—((S)-2-((2-(1,4-dimethyl-1H-pyrazol-5-yl)pyrimidin-5-yl)amino)-1-((1r,4S)-4-methylcyclohexyl)-2-oxoethyl)-1-methyl-1H-pyrazole-5-carboxamide]",398 nM
9,"CCn1nccc1C(=O)N[C@H](C(=O)Nc1ccc(-c2c(C)nnn2C)cn1)[C@H]1CC[C@H](C)CC1 [Example 159, N—((S)-2-((5-(1,4-dimethyl-1H-1,2,3-triazol-5-yl)pyridin-2-yl)amino)-1-((1r,4S)-4-methylcyclohexyl)-2-oxoethyl)-1-ethyl-1H-pyrazole-5-carboxamide]",100 nM
10,"Cc1nocc1C(=O)N[C@H](C(=O)Nc1ccc(-c2c(C)nnn2C)cn1)[C@H]1CC[C@H](C)CC1 [Example 160, N—((S)-2-((5-(1,4-dimethyl-1H-1,2,3-triazol-5-yl)pyridin-2-yl)amino)-1-((1r,4S)-4-methylcyclohexyl)-2-oxoethyl)-3-methylisoxazole-4-carboxamide]",200 nM
11,"Cc1cnn(C)c1-c1cnc(NC(=O)[C@@H](NC(=O)c2ccnn2C)C2CCCCCC2)nc1 [Example 165, (S)—N-(1-cycloheptyl-2-((5-(1,4-dimethyl-1H-pyrazol-5-yl)pyrimidin-2-yl)amino)-2-oxoethyl)-1-methyl-1H-pyrazole-5-carboxamide]",631 nM
12,"Cc1cnn(C)c1-c1ccc(NC(=O)[C@@H](NC(=O)c2cnnn2C)[C@H]2CC[C@H](C)CC2)nc1 [Example 167, N—((S)-2-((5-(1,4-dimethyl-1H-pyrazol-5-yl)pyridin-2-yl)amino)-1-((1r,4S)-4-methylcyclohexyl)-2-oxoethyl)-1-methyl-1H-1,2,3-triazole-5-carboxamide]",316 nM
13,"CCn1nncc1C(=O)N[C@H](C(=O)Nc1ccc(-c2c(C)cnn2C)cn1)[C@H]1CC[C@H](C)CC1 [Example 168, N—((S)-2-((5-(1,4-dimethyl-1H-pyrazol-5-yl)pyridin-2-yl)amino)-1-((1r,4S)-4-methylcyclohexyl)-2-oxoethyl)-1-ethyl-1H-1,2,3-triazole-5-carboxamide]",158 nM

# Other lines, results leading:
row,IC50,Structure (SMILES)
1,200 nM,"Cc1nnn(C)c1-c1ccc(NC(=O)[C@@H](NC(=O)c2ccnn2C)C2CCCCCC2)nc1 [Example 148, (S)—N-(1-cycloheptyl-2-((5-(1,4-dimethyl-1H-1,2,3-triazol-5-yl)pyridin-2-yl)amino)-2-oxoethyl)-1-methyl-1H-pyrazole-5-carboxamide]"
2,79.4 nM,"CCn1nccc1C(=O)N[C@H](C(=O)Nc1ccc(-c2c(C)nnn2C)cn1)C1CCCCCC1 [Example 149, (S)—N-(1-cycloheptyl-2-((5-(1,4-dimethyl-1H-1,2,3-triazol-5-yl)pyridin-2-yl)amino)-2-oxoethyl)-1-ethyl-1H-pyrazole-5-carboxamide]"
3,398 nM,"COCc1onc(C)c1-c1ccc(NC(=O)[C@@H](NC(=O)c2ccnn2C)C2CCCCCC2)nc1 [Example 150, (S)—N-(1-cycloheptyl-2-((5-(5-(methoxymethyl)-3-methylisoxazol-4-yl)pyridin-2-yl)amino)-2-oxoethyl)-1-methyl-1H-pyrazole-5-carboxamide]"
4,251 nM,"CCn1nccc1C(=O)N[C@H](C(=O)Nc1ccc(-c2c(C)cnn2C)nc1)[C@H]1CC[C@H](C)CC1 [Example 154, N—((S)-2-((6-(1,4-dimethyl-1H-pyrazol-5-yl)pyridin-3-yl)amino)-1-((1r,4S)-4-methylcyclohexyl)-2-oxoethyl)-1-ethyl-1H-pyrazole-5-carboxamide]"
5,251 nM,"CCn1nnc(C)c1-c1ccc(NC(=O)[C@@H](NC(=O)c2ccnn2C)C2CCCCCC2)nc1 [Example 157, (S)—N-(1-cycloheptyl-2-((5-(1-ethyl-4-methyl-1H-1,2,3-triazol-5-yl)pyridin-2-yl)amino)-2-oxoethyl)-1-methyl-1H-pyrazole-5-carboxamide]"
6,631 nM,"Cc1noc(C)c1-c1cnc(NC(=O)[C@@H](NC(=O)c2ccnn2C)C2CCCCCC2)cn1 [Example 158, (S)—N-(1-cycloheptyl-2-((5-(3,5-dimethylisoxazol-4-yl)pyrazin-2-yl)amino)-2-oxoethyl)-1-methyl-1H-pyrazole-5-carboxamide]"
7,200 nM,"Cc1nnn(C2CC2)c1-c1ccc(NC(=O)[C@@H](NC(=O)c2ccnn2C)C2CCCCCC2)nc1 [Example 161, (S)—N-(1-cycloheptyl-2-((5-(1-cyclopropyl-4-methyl-1H-1,2,3-triazol-5-yl)pyridin-2-yl)amino)-2-oxoethyl)-1-methyl-1H-pyrazole-5-carboxamide]"
8,200 nM,"Cc1noc(C)c1-c1cnc(NC(=O)[C@@H](NC(=O)c2ccnn2C)C2CCCCCC2)c(F)c1 [Example 162, (S)—N-(1-cycloheptyl-2-((5-(3,5-dimethylisoxazol-4-yl)-3-fluoropyridin-2-yl)amino)-2-oxoethyl)-1-methyl-1H-pyrazole-5-carboxamide]"
9,63.1 nM,"CCn1nccc1C(=O)N[C@H](C(=O)Nc1ncc(-c2c(C)noc2C)cc1F)C1CCCCCC1 [Example 163, (S)—N-(1-cycloheptyl-2-((5-(3,5-dimethylisoxazol-4-yl)-3-fluoropyridin-2-yl)amino)-2-oxoethyl)-1-ethyl-1H-pyrazole-5-carboxamide]"
10,63.1 nM,"CCc1nocc1C(=O)N[C@H](C(=O)Nc1ncc(-c2c(C)noc2C)cc1F)C1CCCCCC1 [Example 164, (S)—N-(1-cycloheptyl-2-((5-(3,5-dimethylisoxazol-4-yl)-3-fluoropyridin-2-yl)amino)-2-oxoethyl)-3-ethylisoxazole-4-carboxamide]"
11,631 nM,"Cn1nccc1C(=O)N[C@H](C(=O)Nc1ccc(-c2c(O)cnn2C)cn1)C1CCCCCC1 [Example 166, (S)—N-(1-cycloheptyl-2-((5-(4-hydroxy-1-methyl-1H-pyrazol-5-yl)pyridin-2-yl)amino)-2-oxoethyl)-1-methyl-1H-pyrazole-5-carboxamide]"
12,100 nM,"CCn1nccc1C(=O)N[C@H](C(=O)Nc1ccc(-c2c(C)noc2C)nc1)C1CCCCCC1 [Example 169, (S)—N-(1-cycloheptyl-2-((6-(3,5-dimethylisoxazol-4-yl)pyridin-3-yl)amino)-2-oxoethyl)-1-ethyl-1H-pyrazole-5-carboxamide]"
13,158 nM,"Cc1nocc1C(=O)N[C@H](C(=O)Nc1ccc(-c2c(C)noc2C)nc1)C1CCCCCC1 [Example 170, (S)—N-(1-cycloheptyl-2-((6-(3,5-dimethylisoxazol-4-yl)pyridin-3-yl)amino)-2-oxoethyl)-3-methylisoxazole-4-carboxamide]"
14,79.4 nM,"CCc1nocc1C(=O)N[C@H](C(=O)Nc1ccc(-c2c(C)noc2C)nc1)C1CCCCCC1 [Example 171, (S)—N-(1-cycloheptyl-2-((6-(3,5-dimethylisoxazol-4-yl)pyridin-3-yl)amino)-2-oxoethyl)-3-ethylisoxazole-4-carboxamide]"
15,200 nM,"Cc1noc(C)c1-c1ccc(NC(=O)[C@@H](NC(=O)c2ccnn2C)C2CCCCCC2)cn1 [Example 172, (S)—N-(1-cycloheptyl-2-((6-(3,5-dimethylisoxazol-4-yl)pyridin-3-yl)amino)-2-oxoethyl)-1-methyl-1H-pyrazole-5-carboxamide]"
